According to patent US10668062B2, “Oxabicycloheptanes and oxabicycloheptenes for the treatment of diabetes” (priority 2012, dated 2020):
“Also recorded” adds a separate entry of the source.

Experiments:
[1] = Other symptoms and complications of Type 2 Diabetes (Example 6); assay type: in vivo; settings: for effects of other dysfunctions associated with or caused by Type 2 Diabetes: atherosclerosis, low glucose tolerance, dyslipidemia, hyperlipidemia, hypertriglyceridemia, hypercholesterolemia; for complications associated with or caused by Type 2 Diabetes: in vivo
Akt = assay: Dephosphorylation and inactivation of Akt in mammalian cells (Example 3); assay type: cell-based; settings: mammalian cells incl. fat, liver, muscle, endothelial cells, hepatocytes, pancreatic islet β-cells
[2] = Activity when given orally to mice; assay type: in vivo; settings: oral
From the text: (§1) The compounds used in the method of the present invention are protein phosphatase 2A (PP2A) inhibitors (Lu et al., 2009; U.S. Pat. No. 7,998,957 B2). […] It has also been shown that another structural homolog of these compounds, LB-107, is active when given orally to mice.
(§2) Disclosed herein is that PP2A inhibitors are effective in treating insulin resistance, Type 2 Diabetes and disorders related to Type 2 Diabetes. […] We have also shown that another structural homolog of these compounds, LB-107, is active when given orally to mice. LB-100 is entering clinical trials as a potential agent for enhancing the effectiveness of certain anticancer agents.

[3] = Type 2 Diabetes related vascular injury in human patients (Example 5); assay type: in vivo; settings: human patients diagnosed with Type 2 Diabetes
[4] = Insulin resistance in human patients diagnosed with Type 2 Diabetes (Example 4); assay type: in vivo
PP2A [5] = biological target: T1, PP2A (Homo sapiens, UniProt P67775); settings: cited from earlier work
T1 construct: endogenous in cells; host or cells: human cancer cells

Toxicity studies in dogs = assay type: in vivo; settings: doses known to reduce PP2A activity in tissue
From the text: as §2

cancer cells = assay: Growth of cancer cells in mouse model systems; assay type: in vivo
From the text: as §1, §2

PP2A [6] = biological target: T1, PP2A; settings: given parenterally in mice; cited from earlier work
Toxicity studies in rats = assay type: in vivo; settings: doses known to reduce PP2A activity in tissue
From the text: as §2

endothelial barrier [7] = settings: Zhou et al, 2012; cited from earlier work
endothelial barrier [8] = settings: model of sepsis; by inhibition of PP2A activation; cited from earlier work
PP2A [9] = biological target: T2, PP2A (Rattus norvegicus, UniProt P63331); settings: inhibition of PP2A activity; Galbo et al, 2011; cited from earlier work
T2 construct: rat liver cells exposed to palmitate, a fatty acid, PP2A activity is increased; host or cells: rat liver cells (endogenous PP2A)
T2 sequence (P63331 whole entry): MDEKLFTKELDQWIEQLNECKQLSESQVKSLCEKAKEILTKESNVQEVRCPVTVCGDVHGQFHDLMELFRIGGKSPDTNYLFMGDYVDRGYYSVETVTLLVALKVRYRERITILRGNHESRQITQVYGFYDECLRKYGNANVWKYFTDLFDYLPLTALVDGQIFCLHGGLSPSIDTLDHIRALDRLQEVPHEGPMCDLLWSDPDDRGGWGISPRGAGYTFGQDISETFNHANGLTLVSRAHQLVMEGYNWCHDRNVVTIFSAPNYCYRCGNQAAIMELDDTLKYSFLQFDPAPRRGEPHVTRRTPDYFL
T2 sequence (Q5XI34 1-589 partner): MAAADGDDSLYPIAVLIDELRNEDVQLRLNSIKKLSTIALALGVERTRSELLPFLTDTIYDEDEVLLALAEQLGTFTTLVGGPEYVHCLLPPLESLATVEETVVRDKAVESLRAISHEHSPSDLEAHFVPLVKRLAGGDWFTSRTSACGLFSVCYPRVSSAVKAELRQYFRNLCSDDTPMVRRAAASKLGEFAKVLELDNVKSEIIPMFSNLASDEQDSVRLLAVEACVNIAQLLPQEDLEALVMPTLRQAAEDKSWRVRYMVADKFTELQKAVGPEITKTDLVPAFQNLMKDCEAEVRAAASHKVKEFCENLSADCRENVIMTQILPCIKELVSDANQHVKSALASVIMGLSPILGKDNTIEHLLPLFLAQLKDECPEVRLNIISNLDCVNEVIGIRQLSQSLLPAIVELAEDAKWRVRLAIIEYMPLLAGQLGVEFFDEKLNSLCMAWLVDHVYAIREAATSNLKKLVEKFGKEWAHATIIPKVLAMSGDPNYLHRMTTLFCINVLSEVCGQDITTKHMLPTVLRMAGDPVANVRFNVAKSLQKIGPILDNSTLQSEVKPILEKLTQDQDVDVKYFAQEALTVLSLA

T1 sequence (P67775 whole entry): as the sequence (P63331 whole entry) above, with L5V counted along it
T1 sequence (P30153 whole entry partner): as the sequence (Q5XI34 1-589 partner) above, with T324S counted along it

Structure (SMILES): COC(=O)C1C(C(=O)N2CCN(C)CC2)[C@@H]2CC[C@H]1O2 (stereo in doubt) [LB-107, 3-(4-Methylpiperazine-1-carbonyl)-7-oxa-bicyclo[2,2,1]heptane-2-carboxylic acid methyl ester]
- effects of other dysfunctions associated with or caused by Type 2 Diabetes [1]: reduce the effects of other dysfunctions
- complications associated with or caused by Type 2 Diabetes [1]: reduce complications associated with or caused by Type 2 Diabetes
- activation of Akt (Akt): increase activation of Akt
- dephosphorylation and inactivation of Akt by PP2A (Akt): reduce dephophorylation and inactivation of Akt
- phosphorylation of Akt (Akt): increase phosphorylation of Akt
- activity when given orally to mice [2]: active
- Type 2 Diabetes related vascular injury caused by disruption of the endothelial barrier [3]: reduce Type 2 Diabetes related vascular injury caused by disruption of the endothelial barrier
- Type 2 Diabetes related vascular injury in the liver, muscle, retina and pancreas [3]: reduce Type 2 Diabetes related vascular injury in the liver, muscle, retina and pancreas
- insulin resistance [4]: reduce insulin resistance
- insulin sensitivity [4]: increase insulin sensitivity

Structure (SMILES): CN1CCN(C(=O)C2C(C(=O)O)[C@H]3CC[C@@H]2O3)CC1 (some centres unmarked) [LB-100]
- inhibition of PP2A in vitro in human cancer cells (PP2A [5]): inhibitors of PP2A
- effects of other dysfunctions associated with or caused by Type 2 Diabetes [1]: reduce the effects of other dysfunctions
- complications associated with or caused by Type 2 Diabetes [1]: reduce complications associated with or caused by Type 2 Diabetes
- toxicity on intravenous administration (Toxicity studies in dogs): without undue toxicity
- activation of Akt (Akt): increase activation of Akt
- dephosphorylation and inactivation of Akt by PP2A (Akt): reduce dephophorylation and inactivation of Akt
- phosphorylation of Akt (Akt): increase phosphorylation of Akt
- Type 2 Diabetes related vascular injury caused by disruption of the endothelial barrier [3]: reduce Type 2 Diabetes related vascular injury caused by disruption of the endothelial barrier
- Type 2 Diabetes related vascular injury in the liver, muscle, retina and pancreas [3]: reduce Type 2 Diabetes related vascular injury in the liver, muscle, retina and pancreas
- growth of cancer cells in mouse model systems (cancer cells): inhibit the growth of cancer cells
- inhibition of PP2A in xenografts of human tumor cells in mice (PP2A [6]): inhibitors of PP2A
- toxicity on intravenous administration (Toxicity studies in rats): without undue toxicity
- insulin resistance [4]: reduce insulin resistance
- insulin sensitivity [4]: increase insulin sensitivity

Structure (SMILES): CC(C)(C)OC(=O)N1CCN(C(=O)C2C(C(=O)O)[C@H]3CC[C@@H]2O3)CC1 (some centres unmarked) [LB-102]
- inhibition of PP2A in vitro in human cancer cells (PP2A [5]): inhibitors of PP2A
- effects of other dysfunctions associated with or caused by Type 2 Diabetes [1]: reduce the effects of other dysfunctions
- complications associated with or caused by Type 2 Diabetes [1]: reduce complications associated with or caused by Type 2 Diabetes
- activation of Akt (Akt): increase activation of Akt
- dephosphorylation and inactivation of Akt by PP2A (Akt): reduce dephophorylation and inactivation of Akt
- phosphorylation of Akt (Akt): increase phosphorylation of Akt
- Type 2 Diabetes related vascular injury caused by disruption of the endothelial barrier [3]: reduce Type 2 Diabetes related vascular injury caused by disruption of the endothelial barrier
- Type 2 Diabetes related vascular injury in the liver, muscle, retina and pancreas [3]: reduce Type 2 Diabetes related vascular injury in the liver, muscle, retina and pancreas
- growth of cancer cells in mouse model systems (cancer cells): inhibit the growth of cancer cells
- inhibition of PP2A in xenografts of human tumor cells in mice (PP2A [6]): inhibitors of PP2A
- insulin resistance [4]: reduce insulin resistance
- insulin sensitivity [4]: increase insulin sensitivity

Structure (SMILES): O=C1O[C@H]([C@@H](O)CO)C(O)=C1O [ascorbic acid]
- induction of endothelial barrier injury by lipopolysaccharide and interferon gamma (endothelial barrier [7]): prevent the induction of endothelial barrier injury
- endothelial barrier function (endothelial barrier [8]): improves endothelial barrier function

Structure (SMILES): C[C@@]12C(=O)OC(=O)[C@]1(C)[C@H]1CC[C@@H]2O1 [cantharidin]
- impairment of insulin activity (PP2A [9]): reversed the impairment of insulin activity

Structure (SMILES): C=C1[C@@H](O)[C@@H]2O[C@]3(CC[C@H](/C=C/[C@@H](C)[C@@H]4CC(C)=C[C@@]5(O[C@H](C[C@@](C)(O)C(=O)O)CC[C@H]5O)O4)O3)CC[C@H]2O[C@@H]1[C@@H](O)C[C@H](C)[C@H]1O[C@@]2(CCCCO2)CC[C@H]1C [okadaic acid]
- induction of endothelial barrier injury by lipopolysaccharide and interferon gamma (endothelial barrier [7]): prevent the induction of endothelial barrier injury; also recorded: prevents the induction of endothelial barrier dysfunction
- impairment of insulin activity (PP2A [9]): reversed the impairment of insulin activity
